ChEMBL document CHEMBL1201862, “PubChem BioAssay data set” (2004)
Counter-ions that a name gives are not always drawn.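 Dose response: 5 concentrations. Exposure: 48 h. Format: 96-well plates. Endpoint: linear interpolation; highest concentration if not reached. GI50 marks 50% less growth.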 The source made the active and inactive calls. Cut-off read from the data, not from the text of the source: active = GI50 up to about 1.1 µM and inactive = higher.

Legend:
Experiment in all cases: growth of human tumour cells (NCI), 48 h
786-0 = test system: 786-0
MOLT-4 = test system: MOLT-4
DU-145 = test system: DU-145
SK-OV-3 = test system: SK-OV-3
SK-MEL-5 = test system: SK-MEL-5
CAKI-1 = test system: CAKI-1
COLO 205 = test system: COLO 205
NCI-H460 = test system: NCI-H460
HCC 2998 = test system: HCC 2998
TK-10 = test system: TK-10
Hs-578T = test system: Hs-578T
SF-539 = test system: SF-539
HOP-92 = test system: HOP-92
SK-MEL-2 = test system: SK-MEL-2
NCI-H23 = test system: NCI-H23
KM12 = test system: KM12
OVCAR-5 = test system: OVCAR-5
K562 = test system: K562
RPMI-8226 = test system: RPMI-8226
RXF 393 = test system: RXF 393

| Compound | GI50 (786-0) | GI50 (MOLT-4) | GI50 (DU-145) | GI50 (SK-OV-3) | GI50 (SK-MEL-5) | GI50 (CAKI-1) | GI50 (COLO 205) | GI50 (NCI-H460) | GI50 (HCC 2998) | GI50 (TK-10) | GI50 (Hs-578T) | GI50 (SF-539) | GI50 (HOP-92) | GI50 (SK-MEL-2) | GI50 (NCI-H23) | GI50 (KM12) | GI50 (OVCAR-5) | GI50 (K562) | GI50 (RPMI-8226) | GI50 (RXF 393) |
| --- | --- | --- | --- | --- | --- | --- | --- | --- | --- | --- | --- | --- | --- | --- | --- | --- | --- | --- | --- | --- |
| COc1cc(C2SCC(=O)N2c2cccc(Cl)c2)cc(OC)c1OC (stereo not drawn) | 51.6 µM (inactive) | 37.2 µM (inactive) | 63.7 µM (inactive) | > 100 µM (inactive) | > 100 µM (inactive) | 55.7 µM (inactive) | > 100 µM (inactive) | > 100 µM (inactive) | > 100 µM (inactive) | > 100 µM (inactive) | > 100 µM (inactive) | > 100 µM (inactive) | 31.2 µM (inactive) | > 100 µM (inactive) | > 100 µM (inactive) | 47.8 µM (inactive) | > 100 µM (inactive) | 36.1 µM (inactive) | 45.7 µM (inactive) | – |
| COc1ccc(N2C(=O)C3c4[nH]c5c(C)cccc5c4C4CCC(C(C)(C)C)CC4C3C2=O)cc1 (stereo not drawn) | – | 3.47 µM (inactive) | > 10 µM (inactive) | > 10 µM (inactive) | > 10 µM (inactive) | > 10 µM (inactive) | 5.97 µM (inactive) | 2.83 µM (inactive) | 2.48 µM (inactive) | 9.14 µM (inactive) | 8.17 µM (inactive) | 9.42 µM (inactive) | – | > 10 µM (inactive) | 4.19 µM (inactive) | 5.13 µM (inactive) | > 10 µM (inactive) | 4.51 µM (inactive) | 6 µM (inactive) | 3.36 µM (inactive) |
| O=C(Nc1sccc1S(=O)(=O)c1ccc(Cl)cc1)c1ccccc1 | > 100 µM (inactive) | > 100 µM (inactive) | > 100 µM (inactive) | > 100 µM (inactive) | > 100 µM (inactive) | > 100 µM (inactive) | > 100 µM (inactive) | > 100 µM (inactive) | – | 40.1 µM (inactive) | > 100 µM (inactive) | 60.1 µM (inactive) | > 100 µM (inactive) | > 100 µM (inactive) | > 100 µM (inactive) | > 100 µM (inactive) | > 100 µM (inactive) | > 100 µM (inactive) | > 100 µM (inactive) | > 100 µM (inactive) |
| OCC(O)C(O)C(C=NNc1ncnc2ccc(Br)cc12)=NNc1ncnc2ccc(Br)cc12 (stereo not drawn) | 1.14 µM (inactive) | 0.282 µM (active) | – | 2.59 µM (inactive) | 1.22 µM (inactive) | 2.22 µM (inactive) | 0.366 µM (active) | – | – | 13.2 µM (inactive) | 41.9 µM (inactive) | 3.13 µM (inactive) | 4.3 µM (inactive) | 2.26 µM (inactive) | – | 5.7 µM (inactive) | 5.13 µM (inactive) | 2.58 µM (inactive) | – | – |
| CCCCCCC(C)CC(CCCCCC)NCCOC(=O)c1ccc([N+](=O)[O-])cc1 (stereo not drawn) | 14.9 µM (inactive) | – | 15.6 µM (inactive) | 16.3 µM (inactive) | 14.3 µM (inactive) | – | 2.17 µM (inactive) | – | 3.72 µM (inactive) | 12 µM (inactive) | 18.7 µM (inactive) | 15.8 µM (inactive) | 10.1 µM (inactive) | 15.8 µM (inactive) | 18 µM (inactive) | 14.1 µM (inactive) | 31.2 µM (inactive) | < 0.01 µM (active) | – | – |
| Cc1nnc2n1N=C(c1cc(F)c(Cl)cc1Cl)/C(=C/c1ccc(-c3ccc([N+](=O)[O-])cc3)o1)S2 | 78.3 µM (inactive) | 29.2 µM (inactive) | – | > 100 µM (inactive) | 56.9 µM (inactive) | > 100 µM (inactive) | 65.9 µM (inactive) | > 100 µM (inactive) | > 100 µM (inactive) | – | > 100 µM (inactive) | – | > 100 µM (inactive) | 42.6 µM (inactive) | 34.3 µM (inactive) | 69.2 µM (inactive) | > 100 µM (inactive) | 31.8 µM (inactive) | 34 µM (inactive) | – |
| CN(C)c1ccc(/C=N/c2nc3cc4sc(/N=C/c5ccc(N(C)C)cc5)nc4cc3s2)cc1 | 49.7 µM (inactive) | 12.9 µM (inactive) | 8.22 µM (inactive) | 41.8 µM (inactive) | > 100 µM (inactive) | 21.3 µM (inactive) | 4.75 µM (inactive) | 5.4 µM (inactive) | – | 80.7 µM (inactive) | 18.1 µM (inactive) | > 100 µM (inactive) | > 100 µM (inactive) | > 100 µM (inactive) | 28.5 µM (inactive) | 46.7 µM (inactive) | > 100 µM (inactive) | 70.1 µM (inactive) | 19.1 µM (inactive) | – |
| Cn1c(=O)oc2cc(C(=S)N3CCC(Cc4ccccc4)CC3)ccc21 | > 100 µM (inactive) | 48.1 µM (inactive) | > 100 µM (inactive) | > 100 µM (inactive) | 51.4 µM (inactive) | > 100 µM (inactive) | > 100 µM (inactive) | > 100 µM (inactive) | – | > 100 µM (inactive) | > 100 µM (inactive) | > 100 µM (inactive) | – | > 100 µM (inactive) | > 100 µM (inactive) | > 100 µM (inactive) | > 100 µM (inactive) | 61.7 µM (inactive) | 62.1 µM (inactive) | > 100 µM (inactive) |
| O=c1[nH]c(=O)n(C2CC(O)C(CO)O2)cc1Oc1ccccc1 (stereo not drawn) | > 100 µM (inactive) | > 100 µM (inactive) | > 100 µM (inactive) | > 100 µM (inactive) | > 100 µM (inactive) | > 100 µM (inactive) | > 100 µM (inactive) | > 100 µM (inactive) | – | > 100 µM (inactive) | > 100 µM (inactive) | – | – | – | > 100 µM (inactive) | > 100 µM (inactive) | > 100 µM (inactive) | > 100 µM (inactive) | > 100 µM (inactive) | > 100 µM (inactive) |
| COC(=O)[C@H](COC(C)(C)C)NC(=O)N[C@H](C)c1ccccc1 | > 100 µM (inactive) | > 100 µM (inactive) | > 100 µM (inactive) | > 100 µM (inactive) | > 100 µM (inactive) | > 100 µM (inactive) | > 100 µM (inactive) | > 100 µM (inactive) | > 100 µM (inactive) | > 100 µM (inactive) | > 100 µM (inactive) | > 100 µM (inactive) | > 100 µM (inactive) | > 100 µM (inactive) | > 100 µM (inactive) | > 100 µM (inactive) | > 100 µM (inactive) | > 100 µM (inactive) | > 100 µM (inactive) | – |
| C[C@@H](Oc1ccc(Oc2cnc3ccc(Cl)cc3n2)cc1)C(=O)O [R(+)XK469] | > 100 µM (inactive) | > 100 µM (inactive) | > 100 µM (inactive) | > 100 µM (inactive) | 67.5 µM (inactive) | > 100 µM (inactive) | 59.3 µM (inactive) | 11.2 µM (inactive) | – | > 100 µM (inactive) | 60.1 µM (inactive) | > 100 µM (inactive) | > 100 µM (inactive) | > 100 µM (inactive) | > 100 µM (inactive) | 76.6 µM (inactive) | > 100 µM (inactive) | – | – | > 100 µM (inactive) |
| CN(C)CCOc1ccc(/C(=C(/CCCl)c2ccccc2)c2ccccc2)cc1 [TOREMIFENE CITRATE] | 17.8 µM (inactive) | 18.7 µM (inactive) | 17.7 µM (inactive) | – | 16 µM (inactive) | 15 µM (inactive) | 19.4 µM (inactive) | 15.7 µM (inactive) | 5.16 µM (inactive) | 15.3 µM (inactive) | 17.2 µM (inactive) | 16.2 µM (inactive) | 3.67 µM (inactive) | 15.5 µM (inactive) | 17.5 µM (inactive) | 17.7 µM (inactive) | 18.1 µM (inactive) | 11.5 µM (inactive) | 4.45 µM (inactive) | – |
| FC(F)(F)c1ccccc1N1CCN(c2nc(-c3cccs3)nc3ccc(Br)cc23)CC1 | 38.2 µM (inactive) | 44.5 µM (inactive) | 63.4 µM (inactive) | 57.3 µM (inactive) | 14.6 µM (inactive) | 21.6 µM (inactive) | 23.4 µM (inactive) | 27.7 µM (inactive) | 4.58 µM (inactive) | 15.8 µM (inactive) | 36.5 µM (inactive) | 97.3 µM (inactive) | < 0.01 µM (active) | 24.9 µM (inactive) | 34.4 µM (inactive) | 13.4 µM (inactive) | 27.6 µM (inactive) | 63.1 µM (inactive) | 11.2 µM (inactive) | – |
| CN(C)C(=S)/N=c1\ssc(=S)n1Cc1ccco1 | 3.72 µM (inactive) | 2.09 µM (inactive) | – | 1.71 µM (inactive) | 1.22 µM (inactive) | 2.01 µM (inactive) | 2.21 µM (inactive) | 1.34 µM (inactive) | 4.61 µM (inactive) | 20.6 µM (inactive) | 0.31 µM (active) | 1.95 µM (inactive) | > 100 µM (inactive) | 2.37 µM (inactive) | 2.38 µM (inactive) | 2.06 µM (inactive) | 32 µM (inactive) | 0.348 µM (active) | 1.48 µM (inactive) | 0.998 µM (active) |
| Cn1c(=O)c2[nH]c(N=O)nc2n(C)c1=O | > 100 µM (inactive) | > 100 µM (inactive) | > 100 µM (inactive) | > 100 µM (inactive) | – | > 100 µM (inactive) | > 100 µM (inactive) | > 100 µM (inactive) | > 100 µM (inactive) | > 100 µM (inactive) | > 100 µM (inactive) | > 100 µM (inactive) | – | > 100 µM (inactive) | > 100 µM (inactive) | > 100 µM (inactive) | > 100 µM (inactive) | > 100 µM (inactive) | > 100 µM (inactive) | > 100 µM (inactive) |
